Data taken from US8524715B2, “Phenoxyacetic acid derivatives useful for treating respiratory diseases” (Astrazeneca AB, priority 2004, dated 2013).

Target: T1, rhCRTh2 (Homo sapiens, UniProt Q9Y5Y4)
T1 construct: expressed in transfected cells; host or cells: HEK cells (membrane preparation)
T1 sequence (Q9Y5Y4 1-395): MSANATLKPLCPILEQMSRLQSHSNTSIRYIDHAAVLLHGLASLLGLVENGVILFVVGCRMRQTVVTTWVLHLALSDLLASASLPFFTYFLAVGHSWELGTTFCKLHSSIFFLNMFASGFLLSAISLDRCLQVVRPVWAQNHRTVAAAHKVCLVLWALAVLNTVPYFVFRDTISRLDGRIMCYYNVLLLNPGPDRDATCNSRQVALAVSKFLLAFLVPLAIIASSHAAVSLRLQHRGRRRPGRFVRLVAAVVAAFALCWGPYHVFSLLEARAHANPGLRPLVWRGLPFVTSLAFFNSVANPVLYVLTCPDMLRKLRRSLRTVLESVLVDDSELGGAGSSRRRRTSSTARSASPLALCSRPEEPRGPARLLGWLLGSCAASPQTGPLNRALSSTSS
Test: Ligand Binding Assay ([3H]PGD2 SPA binding)
Conditions: [3H]PGD2 binding, membranes of HEK cells expressing rhCRTh2/Gα16, SPA beads, 2 hours room temperature; read-out: pIC50 value (converted)
Protocol: [^3H]PGD2 was purchased from Perkin Elmer Life Sciences with a specific activity of 100-210 Ci/mmol. All other chemicals were of analytical grade.
HEK cells expressing rhCRTh2/Gα16 were routinely maintained in DMEM containing 10% Foetal Bovine Serum (HyClone), 1 mg/ml geneticin, 2 mM L-glutamine and 1% non-essential amino acids. For the preparation of membranes, the adherent transfected HEKcells were grown to confluence in two layer tissue culture factories (Fisher, catalogue number TKT-170-070E). Maximal levels of receptor expression were induced by addition of […] sodium butyrate for the last 18 hours of culture. The adherent cells were washed once with phosphate buffered saline (PBS, 50 ml per cell factory) and detached by the addition of 50 ml 0.1 mM dithiothreitol, 1 mM EDTA, 0.1 mM phenyl methyl sulphonyl fluoride and 100 μg/ml bacitracin]. Cells were pelleted by centrifugation at 220×g for 10 minutes at 4° C., re-suspended in half the original volume of fresh membrane homogenisation buffer and disrupted using a Polytron homogeniser for 2×20 second bursts keeping the tube in ice at all times. Unbroken cells were removed by centrifugation at 220×g for 10 minutes at 4° C. and the membrane fraction pelleted by centrifugation at 90000×g for 30 minutes at 4° C. The final pellet was re-suspended in 4 ml of membrane homogenisation buffer per cell factory used and the protein content determined. Membranes were stored at −80° C. in suitable aliquots.
All assays were performed in Corning clear bottomed, white 96-well NBS plates (Fisher). Prior to assay, the HEK cells membranes containing CRTh2 were coated onto SPA PVT WGA beads (Amersham). For coating membranes were incubated with beads at typically 25 μg membrane protein per mg beads at 4° C. with constant agitation overnight. (The optimum coating concentrations were determined for each batch of membranes) The beads were pelleted by centrifugation (800×g for 7 minutes at 4° C.), washed once with assay buffer (50 mM HEPES pH 7.4 containing 5 mM magnesium chloride) and finally re-suspended in assay buffer at a bead concentration of 10 mg/ml.
Each assay contained 20 μl of 6.25 nM [^3H]PGD2, 20 μl membrane saturated SPA beads both in assay buffer and 10 μl of compound solution or 13,14-dihydro-15-keto prostaglandin D2 (DK-PGD2, for determination of non-specific binding, Cayman chemical company).
Compounds and DK-PGD2 were dissolved in DMSO and diluted in the same solvent to 100× the required final concentration. […] The assay plate was incubated at room temperature for 2 hours and counted on a Wallac Microbeta liquid scintillation counter (1 minute per well).

Compared with `CC1CN(Cc2cc(Cl)ccc2OCC(=O)O)CCN1S(=O)(=O)c1ccccc1` (stereo not shown) [example 57, [4-Chloro-2-[[3-methyl-4-(phenylsulfonyl)-1-piperazinyl]methyl]phenoxy]acetic Acid], `C[C@H]1CN(Cc2cc(Cl)ccc2OCC(=O)O)CCN1C(=O)Cc1cccc(F)c1` [example 91, [4-chloro-2-[[(3S)-4-[(3-fluorophenyl)acetyl]-3-methyl-1-piperazinyl]methyl]phenoxy]-acetic Acid] is 3.2-fold higher in IC50: 5.01 nM for the first, 15.8 nM for the second.

`O=C(O)COc1ccc(C(F)(F)F)cc1CN1CCCN(S(=O)(=O)c2ccc(F)cc2)CC1` [example 7, [2-[[4-[(4-fluorophenyl)sulfonyl]hexahydro-1H-1,4-diazepin-1-yl]methyl]-4-(trifluoromethyl)phenoxy]-acetic acid] and `O=C(O)COc1ccc(C(F)(F)F)cc1CN1CCN(C(=O)Cc2cccs2)CC1` [Example 42, [2-[[4-(2-thienylacetyl)-1-piperazinyl]methyl]-4-(trifluoromethyl)phenoxy]-acetic Acid] are within 1.5-fold of each other in IC50: 89.1 nM for the first, 132 nM for the second.
